Source: PubChem BioAssay AID1963867 (Molecular Pharmacology Branch, DTP, NCI, 2024)

Test system: KRAS-mutant PDC tumor spheroid with HUVEC/MSC, viability
Assay: Anticancer human tumor 327498-153-R-J2-PDC patient-derived uterine carcinosarcoma cell line growth inhibition [KRAS2]
Conditions: for IC50: curve of first compound; for viability, T/C: stronger effect = lower value
In short: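 KRAS-mutant tumor cells were grown as spheroids with HUVEC endothelial cells and human MSCs as stroma. Targeted agents were tested alone and with KRAS pathway inhibitors. Doses started at or near clinical Cmax, or 10 microM, descending half-log.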

[1] = second compound 0.1 µM, first compound 0.0316 µM
[2] = second compound 0.1 µM, first compound 0.1 µM
[3] = second compound 0.1 µM, first compound 0.316 µM
[4] = second compound 0.1 µM, first compound 1 µM
[5] = second compound 0.316 µM, first compound 0.0316 µM
[6] = second compound 0.316 µM, first compound 0.1 µM
[7] = second compound 0.316 µM, first compound 0.316 µM
[8] = second compound 0.316 µM, first compound 1 µM
[9] = second compound 1 µM, first compound 0.0316 µM
[10] = second compound 1 µM, first compound 0.1 µM
[11] = second compound 1 µM, first compound 0.316 µM
[12] = second compound 1 µM, first compound 1 µM
[13] = second compound 3.16 µM, first compound 0.0316 µM
[14] = second compound 3.16 µM, first compound 0.1 µM
[15] = second compound 3.16 µM, first compound 0.316 µM
[16] = second compound 3.16 µM, first compound 1 µM
[17] = second compound 10 µM, first compound 0.0316 µM
[18] = second compound 10 µM, first compound 0.1 µM
[19] = second compound 10 µM, first compound 0.316 µM
[20] = second compound 10 µM, first compound 1 µM
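Further: spheroids exposed to agents for seven days before reading.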
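Wherever viability, T/C is given: 100% = DMSO vehicle wells so lower means fewer viable cells.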

Row | Structure (SMILES) | IC50 (second compound 0.1 µM) [nM] | IC50 (second compound 0.316 µM) [nM] | IC50 (second compound 1 µM) [nM] | IC50 (second compound 3.16 µM) [nM] | IC50 (second compound 10 µM) [nM] | viability, T/C [1] [%] | viability, T/C [2] [%] | viability, T/C [3] [%] | viability, T/C [4] [%] | viability, T/C [5] [%] | viability, T/C [6] [%] | viability, T/C [7] [%] | viability, T/C [8] [%] | viability, T/C [9] [%] | viability, T/C [10] [%] | viability, T/C [11] [%] | viability, T/C [12] [%] | viability, T/C [13] [%] | viability, T/C [14] [%] | viability, T/C [15] [%] | further results
1 | CCN1CCN(Cc2ccc(Nc3ncc(F)c(-c4cc(F)c5nc(C)n(C(C)C)c5c4)n3)nc2)CC1 + CC1OCC2(CCN(c3cnc(Sc4ccnc(N)c4Cl)c(N)n3)CC2)C1N | 8.23 | < 3.16 | < 3.16 | < 3.16 | < 3.16 | 36.7 | 37.9 | 44.6 | 45.5 | 26.9 | 29.2 | 26.6 | 33.5 | 24.5 | 21.3 | 22 | 26.5 | 16.2 | 16.7 | 18.5 | viability, T/C (second compound 0.1 µM, first compound 0.00316 µM): 61.5%; viability, T/C (second compound 0.1 µM, first compound 0.01 µM): 49%; viability, T/C (second compound 0.316 µM, first compound 0.00316 µM): 42.5%; viability, T/C (second compound 0.316 µM, first compound 0.01 µM): 31.6%; viability, T/C (second compound 1 µM, first compound 0.00316 µM): 34.2%; viability, T/C (second compound 1 µM, first compound 0.01 µM): 23.7%; viability, T/C (second compound 3.16 µM, first compound 0.00316 µM): 20%; viability, T/C (second compound 3.16 µM, first compound 0.01 µM): 16.6%; viability, T/C [16]: 22.1%; viability, T/C (second compound 10 µM, first compound 0.00316 µM): 19%; viability, T/C (second compound 10 µM, first compound 0.01 µM): 16.2%; viability, T/C [17]: 17.8%; viability, T/C [18]: 16.9%; viability, T/C [19]: 20.8%; viability, T/C [20]: 22%
2 | CCNC(=O)CC1N=C(c2ccc(Cl)cc2)c2cc(OC)ccc2-n2c(C)nnc21 (stereo not given) + CC1OCC2(CCN(c3cnc(Sc4ccnc(N)c4Cl)c(N)n3)CC2)C1N | 346 | 102 | < 31.6 | < 31.6 | < 31.6 | 64.3 | 68 | 49.8 | 37.8 | 51.8 | 51.5 | 37.9 | 27.9 | 42 | 35.4 | 31.7 | 18.3 | 31.3 | 26.1 | 20.4 | viability, T/C (second compound 0.1 µM, first compound 3.16 µM): 38.8%; viability, T/C (second compound 0.1 µM, first compound 10 µM): 27.5%; viability, T/C (second compound 0.316 µM, first compound 3.16 µM): 26.2%; viability, T/C (second compound 0.316 µM, first compound 10 µM): 22.4%; viability, T/C (second compound 1 µM, first compound 3.16 µM): 17.8%; viability, T/C (second compound 1 µM, first compound 10 µM): 16.8%; viability, T/C [16]: 16.9%; viability, T/C (second compound 3.16 µM, first compound 3.16 µM): 13.6%; viability, T/C (second compound 3.16 µM, first compound 10 µM): 11.8%; viability, T/C [17]: 20.1%; viability, T/C [18]: 20.7%; viability, T/C [19]: 18.2%; viability, T/C [20]: 13.9%; viability, T/C (second compound 10 µM, first compound 3.16 µM): 12%; viability, T/C (second compound 10 µM, first compound 10 µM): 10.9%
